Data on one molecule can be found in patent US20130096160A1, “ARYLTHIAZOLYL PIPERIDINES AND RELATED COMPOUNDS AS MODULATORS OF SURVIVAL MOTOR NEURON (SMN) PROTEIN PRODUCTION” (Secretary, Department of Health and Human Services, priority 2010, published 2013).

Each structure is given as a SMILES string.

One data set deals with CaCo-2 cells. In words: in vitro. The data set is classed as in vitro ADME. The protocol:
CaCo-2 cells grown in tissue culture flasks are trypsinized, suspended in medium, and the suspensions are applied to wells of a collagen-coated BioCoat Cell Environment in 24-well format (BD Biosciences) at 24,500 cells per well. The cells are allowed to grow and differentiate for three weeks, feeding at 2-day intervals.
For Apical to Basolateral (A->B) permeability, the test agent is added at 50 μM to the apical (A) side and amount of permeation is determined on the basolateral (B) side; for Basolateral to Apical (B>A) permeability, the test agent is added at 50 μM to the B side and the amount of permeation is determine on the A side. The A-side buffer contains 100 μM Lucifer yellow dye, in Transport Buffer (1.98 g/L glucose in 10 mM HEPES, 1× Hank's Balanced Salt Solution) pH 6.5, and the B-side buffer is Transport Buffer, pH 7.4. CaCo-2 cells are incubated with these buffers for 2 h., and the receiver side buffer is removed for analysis by liquid chromatography-mass spectrometry (LC/MS/MS).
Additionally, several control compounds are tested in the identical assay.
To verify that CaCo-2 cell monolayers are properly formed, aliquots of the cell buffers are analyzed by fluorescence to determine the transport of the impermeable dye Lucifer Yellow.
Data are expressed as permeability (Papp): […]
where dQ/dt is the rate of permeation, C0 is the initial concentration of test agent, and A is the area of the monolayer.
In bidirectional permeability studies, the asymmetry index (AI) or efflux ratio is also calculated:
An AI>1 indicated a potential substrate for PGP or other active transporters.
Samples are analyzed by LC/MS/MS using either an Agilent 6410 mass spectrometer coupled with an Agilent 1200 high performance liquid chromatography (HPLC) and a CTC PAL chilled autosampler, all controlled by MassHunter software (Agilent), or an ABI2000 mass spectrometer coupled with an Agilent 1100 HPLC and a CTC PAL chilled autosampler, all controlled by Analyst software (ABI). After separation on a C18 reverse phase HPLC column (Agilent, Waters, or equivalent) using an acetonitrile-water gradient system, peaks are analyzed by mass spectrometry (MS) using electrospray ionization (ESI) in multiple reaction monitoring (MRM) mode.
The signal is optimized for each compound by ESI positive or negative ionization mode. A MS2 selected ion monitoring (SIM) scan is used to optimize the precursor ion and a product ion analysis is used to identify the best fragment for analysis and to optimize the collision energy.

In another data set the test system is SMN1-luciferase reporter. In words: SMN1-luciferase reporter control cell line. It counts as cell-based, human. Particulars: SMN1-luc reporter, FIG. 1. An excerpt:
A cell-based quantitative high throughput screening (qHTS) assay is used to identify compounds able to increase SMN production. The assay uses a SMN2-luciferase reporter to determine if exon 7 of the SMN gene is expressed, which correlates with increased full-length SMN production from the SMN2 gene. As controls, a homologue SMN1-luciferase reporter cell line looks for variations in expression of the SMN1 gene and a cell line with just the luciferase reporter looks at the capacity of the compounds to inhibit luciferase. In addition, increments in SMN production by lead compounds were confirmed by Western-Blot analysis using SMA patient fibroblasts.
The SMN reporters used herein are modified from those previously described (M. L. Zhang, C. L. Lorson, E. J. Androphy and J. Zhou, An in vivo reporter system for measuring increased inclusion of exon 7 in SMN2 mRNA: potential therapy of SMA, Gene Ther 8 (2001), pp. 1532-1538.)
The sequence of the SMN1 reporter vector used herein is given in SEQ ID NO.:1, while that of the SMN2 reporter vector is given in SEQ ID NO.:2. […]

`NC(=O)C1CCN(c2nc(-c3ccc(Br)cc3)cs2)CC1` [MLS000698854]: in the data set with CaCo-2 cells, the “Caco-2 permeability (in words)” value is “highly permeable”, the “Pgp substrate (in words)” value is recorded as “no indication of being a Pgp substrate”, the “mean A->B Papp” value is listed as 32.6 10^−6 cm s^−1 and the “mean B->A Papp” value is 12.0 10^−6 cm s^−1. Further, the “expression of SMN1 (in words)” value in the data set with SMN1-luciferase reporter is listed as “does not affect the expression of SMN1”.
